In US20240247074A1, “THERAPEUTIC STRATEGY FOR NON-SMALL CELL LUNG CANCER AND OTHER CANCERS” (New York University, priority 2023, published 2024):

Experiments:
[1] = tested on: KL tumors (LKB1 mutant lung cancer tumors); assay: KL tumor growth after EP300 inhibitor treatment; assay type: in vivo; details: FIG. 6C, 6D
Excerpt: (§1) FIG. 6. EP300 inhibition suppresses LKB1 mutant tumor progression. (A), EP300 inhibitors CCS1477 and A485 suppresses CD38 expression in LKB1 mutant tumors. (B), Representative FACS analysis of CD38 expression after drug treatment. (C), Tumor volume changes of KL tumors after indicated EP300 inhibitors treatment. (D). Tumor growth curve of KL tumors treated with CCS1477 or A485.
(§2) Since LKB1/SIK suppresses CD38 expression through CTRC/EP300/CREB complex, we further tested inhibition of CD38 via EP300 inhibitors, including CCS1477 and A485, in LKB1 mutant lung cancer tumors.

[2] = tested on: CD38 expression; assay: FACS analysis of CD38 expression in LKB1 mutant tumors after EP300 inhibitor treatment; assay type: cell-based; details: LKB1 mutant lung cancer tumors, FIG. 6A, 6B
Excerpt: as §1, §2

[3] = tested on: HCC44 xenograft tumor; assay: HCC44 xenograft tumor growth in nu/nu mice; assay type: in vivo, mouse; details: LKB1 mutant HCC44 xenograft, 12.5 mg/kg once per week from about 100 mm^3, vs hIgG1, FIG. 5
Experimental: (§3) FIG. 5. Daratumumab induces killing of CD38 positive lung cancer. […] A549 (A-C) or HCC44 (D-F) xenograft tumor growth in response to daratumumab treatment. For each mouse, 3×10^6 A549 cells (A) or 5×10^5 HCC44 (D) were implanted into nu/nu mice subcutaneously. Daratumumab or hIgG1 (12.5 mg/kg, once per week) was dosed when tumor size reached 100 mm^3. Growth curve of A549 cells (A) or HCC44 (D) after daratumumab treatment. B-C, Individual mouse tumor growth curve for A549 xenografts treated with either hIgG1 (B) or Daratumumab (C) shown in panel A. (E-F), Individual mouse tumor growth curve for HCC44 xenograft treated with either hIgG1 (E) or Daratumumab (F) shown in panel D.
(§4) To study the effects of daratumumab in vivo, we implanted the LKB1 mutant A549 and HCC44 cell lines into athymic nude (nu/nu) mice to generate tumor xenografts. Daratumumab is a human IgG1, which can be recognized by mouse FcγRs on effector cells, resulting in ADCC induced between daratumumab with mouse NK cells through crosstalk, enabling evaluation of NK cell-mediated tumor cell killing in vivo. When tumors reached approximately 100 mm^3 in volume, mice were treated with daratumumab once weekly.

[4] = tested on: A549 xenograft tumor; assay: A549 xenograft tumor growth in nu/nu mice; assay type: in vivo, mouse; details: LKB1 mutant A549 xenograft, 12.5 mg/kg once per week from about 100 mm^3, vs hIgG1, FIG. 5
Experimental: as §3, §4

[5] = tested on: CD38 expression; assay: Flow cytometric analysis of CD38 expression after SIK inhibitor treatment in LKB1 WT mouse cancer cell lines; assay type: cell-based; details: LKB1 WT mouse lung cancer (KPC), colon cancer (CT26, MC38) and pancreatic cancer (KP1) lines; flow cytometry; FIG. 3
Excerpt: FIG. 3. SIK inhibitor increases upregulation of CD38 in LKB1 wildtype tumors. Flow cytometric analysis of CD38 expression changes after SIK inhibitor YKL-05-099 treatment in lung cancer (KPC) (A), and colon cancer (CT26, MC38) or pancreatic cancer (KP1) lines (B) at the indicated time points and concentration.
In line with the results of the LKB1 rescue studies, CRISPR-mediated knockout of Lkb1 in murine KP NSCLC cells led to increased cell surface expression of CD38 (FIG. 2A, 2B). We subsequently tested the impact of knockout of Sik1, Sik2 and Sik3, alone or in combination. We observed prominent increases in CD38 expression at the cell surface in KP cells upon inactivation of Sik1 or of all three SIK family members, but not to the level of CD38 in KP sgLkb1 cells (FIG. 2A, 2B). Without intending to be constrained by any particular theory, it is considered this indicates other factors other than SIK1/2/3 downstream of LKB1, might also contribute to the suppression of CD38 expression.

| Compound | tumor growth in vivo [1] | CD38 expression on the tumor cells [2] | tumor growth [3] | tumor growth [4] | CD38 expression change [5] |
| --- | --- | --- | --- | --- | --- |
| CO[C@H]1CC[C@H](n2c([C@@H]3CCCC(=O)N3c3ccc(F)c(F)c3)nc3cc(-c4c(C)noc4C)ccc32)CC1 [CCS1477] | reduced tumor growth | decrease of CD38 expression |  |  |  |
| CNC(=O)Nc1ccc2c(c1)CC[C@@]21OC(=O)N(CC(=O)N(Cc2ccc(F)cc2)[C@@H](C)C(F)(F)F)C1=O [A485] | reduced tumor growth | decrease of CD38 expression |  |  |  |
| daratumumab: first approved antibody against CD38, a fully human IgG1-κ monoclonal antibody |  |  | significant reduction in tumor growth | significant reduction in tumor growth |  |
| COc1ccc(N2C(=O)N(c3c(C)cccc3Cl)Cc3cnc(Nc4ccc(C5CCN(C)CC5)cc4OC)nc32)nc1 [YKL-05-099] |  |  |  |  | upregulated CD38 |
